# Measurements from patent US20040192638A1, “Method and composition for prolonging the residence time of drugs in the gut” (priority 2001, published 2004).
# “Also recorded” adds a separate entry of the source.
# Columns and labels:
# [1] = tested on: Male Ross x Ross broiler chicks; assay: Effect of cGMP on feed conversion ratio in broiler chicks; format: in vivo; conditions: for Feed Conversion Ration FCR / Feed Intake / Gain: Experiment 1; for Feed Intake / Gain: per pen of 5 chicks, 10 mg cGMP/kg of feed and/or 100 mg succinate/kg of feed, terminated after week 2
# Description: cGMP for use in this Example was manufactured by ICN Biomedicals (Irvine, Calif.), and purchased from Fisher Scientific (Hampton, N.H.). Male Ross x Ross broiler chicks were obtained from Sunnyside Hatchery (Beaver Dam, Wis.). Standard commercial chick mash was used as a base ration. cGMP with and without succinate was dissolved in water and sprayed as a mist onto the basal diet during continuous mixing. […] Diets were prepared 1 to 3 days prior to the start of the experiment and stored in individual plastic buckets (1 bucket/replicate). Chicks were randomly placed into treatment groups with 5 birds per replicate. Chicks were weighed as a group, so each pen of 5 animals represents n=1. Treatments and replicates were randomly assigned (via a random number generator) to pens. Chicks were fed ad libitum and checked daily. Feed intake and pen weight were recorded weekly. Feed conversion ratios were calculated as grams of feed consumed/grams of weight gain in the animals. […] The results are shown in Table 2 for two sets of experiments. Experiment 1 was to run for 3 weeks, but was accidentally disrupted during the third week.
# rat small intestine [2] = assay: Sustained Spike Potential (SSP) myoelectric bioassay, infusion into the duodenum via cannula in instrumented uninfected rats; format: in vivo; conditions: for stimulation / induction of SSP above background levels (in words): infused into intestinal lumen, concentration not stated at the place; for SSP frequency compared with saline controls / background (in words): 0.2 ml infused into intestinal lumen, FIG. 3
# Description: Outbred male rats (Sprague Dawley, Harlan Sprague Dawley, Inc., Indianapolis, Ind.) were housed singly and maintained on a 12-hour light/12-hour dark cycle. All rats used in the bioassay procedure were uninfected with tapeworms. The design and surgical implantation procedure of the intestinal extracellular bipolar electrodes have been described previously (Dwinell et al., 1994, 1997). Briefly, four bipolar electrodes were surgically sutured to the intestinal serosa of each rat according to the methods of Dwinell et at. (1994), which is incorporated herein by reference. Three electrodes (J1-J3) were implanted on the jejunum at 10 cm intervals, with the first electrode (J1) placed 10 cm caudal from the ligament of Treitz and proceeding caudally with J2 and J3. A fourth electrode (designated “I” because it was placed within the ileum) was placed 20 cm orad from the ileo-caecal junction. In addition, a cannula was implanted with one end residing in the lumen of the mid-duodenum, whereas the other end was exteriorized to allow infusion of test fractions.
# All compounds tested were infused into the duodenum via the cannula. Compounds were delivered in 0.2 ml aliquots followed immediately by a 0.2 ml saline cannula rinse. These volumes were used in order to prevent muscle contraction due to stretch from larger bolus volumes. To observe the induction of SSP, intestinal myoelectric activity was recorded for 90 minutes following infusion.
# Consistent with the protocol of Dwinell et al. (1994), intestinal myoelectric activity was not recorded for the first five days after implantation surgery. Control recordings were taken after this period to assure the return of normal myoelectric patterns of the MMC following the cessation of post-surgical ileus. Periodic “control” recordings were made with saline on the intervening days between the tests with tapeworm-conditioned medium (TCM) or its fractions.
# In vivo intestinal myoelectric activity was recorded with a polygraph chart recorder (Grass Instruments, Quincy, Mass.). The myoelectric signal from each electrode was simultaneously recorded on paper and by a personal computer with an I/O board and WINDAQ software (Dataq Instruments, Akron, Ohio) connected to the polygraph recorder by an analog-to-digital converter (Dataq Instruments).
# Food was removed on each recording day at 0800 hour to prevent animal feeding and the subsequent disruption of the interdigestive myoelectric pattern. Recording occurred between 1300 and 1900 hours. All recording sessions for each animal were at least 1.5 hour in duration, and all animals were recorded while awake and unrestrained. Vehicle (0.9% saline or in some cases RPMI 1640) was used as control for test substances.
# Five days after electrode and cannula implantation surgery, three consecutive baseline 90-minute recordings were made on separate days in each rat to confirm the presence of normal intestinal myoelectric activity at the end of the immediate post surgical period.
# Secreted compounds were infused via the duodenal cannula and the frequency of the sustained spike potential (SSP) electrical patterns was determined from recordings of myoelectric activity. […] The third and final phase of the MMC (marked by arrowheads) is a period of >90% spiking and represents a series of contractions migrating orad to caudad along the small intestine. The caudad migration of phase III between electrode sites propels lumenal content toward the caecum.
# Cyclic nucleotides were degraded to their 5′-monophosphate derivatives by incubation with bovine brain phosphodiesterase (PDE; cat. # P-0134, Sigma Co., St. Louis, Mo.).
# rat small intestine [3] = assay: SSP myoelectric recording after intragastric (per os) or intraperitoneal cGMP; format: in vivo; conditions: data not shown
# Description: For intragastric infusion, rats (n=4) were lightly sedated with Halothane in order to insert a gastric tube per os and infused with 0.3 ml of 10 mM cGMP in saline directly into the lumen of the stomach. Thirty minutes of control myoelectric recording were always performed before infusion of any substance. Five to seven minutes after infusion, the rats were reconnected to the recorder. […] This procedure was repeated with the same rats on a different day with 0.3 ml 100 mM cGMP (equal to 100× the minimal dose required to increase SSP frequency by infusion into the lumen of the small intestine) and on a separate day with 0.3 ml saline as a vehicle control. Post-oral dosing myoelectric recordings were 90 minutes in duration.
# Neither cGMP (1.0 ml of 100 mM) injected intraperitoneally nor cGMP (0.3 ml of 10 mM and 100 mM) introduced into the stomach per os initiated the SSP pattern in the small intestine (data not shown).
# [4] = Effect of cGMP on drug uptake: atenolol in blood after intraduodenal infusion; format: in vivo, rat; conditions: atenolol 1 mg/kg intraduodenal; 0.2 ml of 10 mM cGMP 15 minutes prior to and 15 minutes after atenolol; same rats, FIG. 4
# Description: Thus, a model drug, atenolol, was introduced directly into the lumen of the rat's small intestine, and the concentration of atenolol was measured in the blood over time. The blood values and concentration kinetics of the model drug were compared after infusion into the intestine alone or when infused with cGMP. Atenolol was quantified using conventional liquid chromatography/mass spectrometry methods.
# Outbred male rats (Sprague Dawley, Harlan Sprague Dawley, Inc., Indianapolis, Ind.) were housed singly and maintained on a 12-hour light/12-hour dark cycle. All rats used in this bioassay procedure were uninfected with tapeworm. For intestinal infusion, rats (n=2) were lightly sedated, and an indwelling cannula was implanted into the duodenal lumen in each of two rats. […] In brief, the animal preparation involved the following: a cannula was surgically implanted into the duodenal region of each test rat. The cannula extended from the lumen of the duodenum, across the peritoneum, under the skin to the abdominal wall, and finally to an exit from the skin at the nape of the neck. […] During the surgery, both cannulas were filled with sterile saline and plugged with metal pins. Rats were allowed at least five days to recover from implantation surgery before any manipulation occurred. All rats were housed individually after surgery to prevent damage to the cannulas. […]
# rat small intestine [5] = assay: Effect of cGMP combined with succinate on SSP frequency (Example 3); format: in vivo; conditions: for SSP stimulation (in words): FIG. 5
# Description: In order to measure intestinal motility, rats were prepared as per […] et al. (1994) as described in the prior Examples. Briefly, electrodes were implanted along the length of the intestine to allow observation of intestinal muscle contraction, and a cannula was implanted in the duodenum to permit the infusion of test substances. After normal intestinal motility was established in each rat, test substances were infused through the duodenal cannula, and myoelectric recordings were used to observe the occurrence of SSP.
# [6] = grams of feed consumed/grams of weight gain
# [7] = 100 mM, 0.2 ml infused into duodenum
# [8] = 10 mM, 0.2 ml infused into duodenum
# [9] = 1 mM, 0.2 ml infused into duodenum
# [10] = Experiment 2, grams of feed consumed/grams of weight gain
smiles,measurement,setting,value
"O=C(O)CCC(=O)O [Succinate, succinic acid]",Feed Conversion Ration FCR,[1]; [6],1.561 ± 0.073
same,Feed Intake,[1],2127 ± 257
same,Gain,[1],1372 ± 194
same,SSP frequency / SSP induction compared with saline controls (in words),rat small intestine [2]; 100 mM infused into intestinal lumen,failure
same,SSP/Hr (MEAN ± SE),rat small intestine [2]; [7],0.33 ± 0.27 SSP/Hr
same,stimulation / induction of SSP above background levels (in words),rat small intestine [2],does not alter motility
same,stimulation / induction of SSP above background levels (in words),rat small intestine [2]; listed as succinate,lack of SSP induction
"Nc1nc2c(ncn2[C@@H]2O[C@H](CO)[C@@H](O)[C@H]2O)c(=O)[nH]1 [Guanosine, guanosine, reference compound]",SSP/Hr (MEAN ± SE),rat small intestine [2]; [8],0.50 ± 0.28 SSP/Hr
same,SSP frequency compared with saline controls / background (in words),rat small intestine [2]; 10 mM,not significantly different from saline controls
"Nc1nc2c(ncn2[C@@H]2O[C@H](COP(=O)(O)O)[C@@H](O)[C@H]2O)c(=O)[nH]1 [Guanosine Monophosphate, reference compound]",SSP/Hr (MEAN ± SE),rat small intestine [2]; [8],0.5 ± 0.3 SSP/Hr
"Nc1nc2nc[nH]c2c(=O)[nH]1 [Guanine suspension, guanine, reference compound]",SSP/Hr (MEAN ± SE),rat small intestine [2]; [8],0 SSP/Hr
"Nc1nc2nc[nH]c2c(=O)[nH]1 [Guanine, guanine, reference compound]",SSP/Hr (MEAN ± SE),"rat small intestine [2]; 0.1 mM, 0.2 ml infused into duodenum",1.33 SSP/Hr
same,SSP/Hr (MEAN ± SE),rat small intestine [2]; [9],1.33 ± 0.94 SSP/Hr
same,SSP/Hr (MEAN ± SE),rat small intestine [2]; [8],0.33 ± 0.24 SSP/Hr
same,SSP frequency compared with saline controls / background (in words),rat small intestine [2]; 10 mM,not significantly different from saline controls
"O=c1[nH]cnc2c1ncn2[C@@H]1O[C@@H]2COP(=O)(O)O[C@H]2[C@H]1O [cIMP, reference compound]",stimulation / induction of SSP above background levels (in words),rat small intestine [2],no response
"N[C@@H](C(=O)O)[C@@H](O)[C@H](O)[C@H](O)CO [D-Glucosaminic Acid, D-glucosaminic acid, reference compound]",SSP/Hr (MEAN ± SE),"rat small intestine [2]; 0.25 mM, 0.2 ml infused into duodenum",0 SSP/Hr
same,stimulation / induction of SSP above background levels (in words),rat small intestine [2],lack of SSP induction
"Nc1nc2c(ncn2C2OC3COP(=O)(O)OC3C2O)c(=O)[nH]1 (stereo not drawn) [cGMP, guanosine cyclic 3′, 5′-hydrogen phosphate]",initiation of SSP pattern in the small intestine (in words),rat small intestine [3]; 0.3 ml of 10 mM into the stomach per os,lack of intestinal response
same,initiation of SSP pattern in the small intestine (in words),rat small intestine [3]; 0.3 ml of 100 mM into the stomach per os,lack of intestinal response
same,initiation of SSP pattern in the small intestine (in words),rat small intestine [3]; 1.0 ml of 100 mM injected intraperitoneally,lack of intestinal response
same,"amount of atenolol in the blood over the 20-minute period, with cGMP versus atenolol alone",[4],almost doubles
same,Feed Conversion Ration FCR,[1]; [6],1.535 ± 0.094
same,Feed Intake,[1],2334 ± 144
same,Gain,[1],1548 ± 65
same,FCR Week 1,[1]; [10],1.635 ± 0.093
same,FCR Week 2,[1]; [10],1.459 ± 0.058
same,FCR Week 3,[1]; [10],1.580 ± 0.059
same,SSP stimulation (in words),rat small intestine [5]; 2.8 nM cGMP alone,did not stimulate SSP above the background; also recorded: generally does not produce
same,SSP stimulation (in words),rat small intestine [5]; 10 mM cGMP alone,produces
same,concentrations of cGMP alone incapable of stimulating SSP,rat small intestine [5]; cGMP infused alone,below 1 mM
same,cGMP concentration required to activate SSP response,rat small intestine [5]; without succinate,about 10 mM
same,SSP/Hr (MEAN ± SE),"rat small intestine [2]; 100 nM, 0.2 ml infused into duodenum",0 SSP/Hr
same,SSP/Hr (MEAN ± SE),"rat small intestine [2]; 1 μM, 0.2 ml infused into duodenum",0 SSP/Hr
same,SSP/Hr (MEAN ± SE),"rat small intestine [2]; 10 μM, 0.2 ml infused into duodenum",0.5 ± 0.25 SSP/Hr
same,SSP/Hr (MEAN ± SE),"rat small intestine [2]; 100 μM, 0.2 ml infused into duodenum",0.66 ± 0.38 SSP/Hr
same,SSP/Hr (MEAN ± SE),rat small intestine [2]; [9],0.80 ± 0.18 SSP/Hr
same,SSP/Hr (MEAN ± SE),"rat small intestine [2]; 5 mM, 0.2 ml infused into duodenum",1.60 ± 0.38 SSP/Hr
same,SSP/Hr (MEAN ± SE),rat small intestine [2]; 10 mM + 1 Unit PDE (incubated 30° C. 16 hours before infusion),0 SSP/Hr
same,ability to stimulate SSP after incubation with phosphodiesterase (PDE) before infusion (in words),rat small intestine [2]; 10 mM cGMP solution or TCM incubated in PDE before bioassay,lose their ability to stimulate SSP; also recorded: control values
same,SSP/Hr (MEAN ± SE),rat small intestine [2]; [8],2.0 ± 0.38 SSP/Hr
same,SSP frequency compared with saline controls / background (in words),rat small intestine [2]; 10 mM,significantly increased
same,SSP/Hr (MEAN ± SE),"rat small intestine [2]; 10 mM, boiled before infusion",1.0 ± 0.47 SSP/Hr
same,SSP/Hr (MEAN ± SE),rat small intestine [2]; [7],1.50 ± 0.46 SSP/Hr
same,SSP/Hr (MEAN ± SE),"rat small intestine [2]; 0.5 M, 0.2 ml infused into duodenum",1.25 ± 0.41 SSP/Hr
same,lumenal dose range with significant increase in SSP frequency,"rat small intestine [2]; FIG. 2, versus saline, Student t-test",1 to 100 mM
same,stimulation / induction of SSP above background levels (in words),rat small intestine [2],initiated SSP myoelectric patterns
"CC(=O)O [Acetate, reference compound]",SSP/Hr (MEAN ± SE),"rat small intestine [2]; 50 mM, 0.2 ml infused into duodenum",0 SSP/Hr
same,stimulation / induction of SSP above background levels (in words),rat small intestine [2],lack of SSP induction
"CC(O)C(=O)O (stereo not drawn) [Lactic Acid, reference compound]",SSP/Hr (MEAN ± SE),"rat small intestine [2]; 20 mM, 0.2 ml infused into duodenum",0 SSP/Hr
same,stimulation / induction of SSP above background levels (in words),rat small intestine [2],lack of SSP induction
"O=c1ccn([C@@H]2O[C@@H]3COP(=O)(O)O[C@H]3[C@H]2O)c(=O)[nH]1 [cUMP, reference compound]",stimulation / induction of SSP above background levels (in words),rat small intestine [2],no response
"Nc1nc2c(nc(Br)n2[C@@H]2O[C@@H]3COP(=O)(O)O[C@H]3[C@H]2O)c(=O)[nH]1 [8-Br-cGMP, reference compound]",SSP/Hr (MEAN ± SE),rat small intestine [2]; [8],0.50 ± 0.31 SSP/Hr
same,SSP frequency compared with saline controls / background (in words),rat small intestine [2]; 10 mM,did not significantly increase
